Experiment [1] deals with T1, AHR (Mus musculus, UniProt P30561).
T1 sequence (P30561 1-848 P471L/N533S/M589L): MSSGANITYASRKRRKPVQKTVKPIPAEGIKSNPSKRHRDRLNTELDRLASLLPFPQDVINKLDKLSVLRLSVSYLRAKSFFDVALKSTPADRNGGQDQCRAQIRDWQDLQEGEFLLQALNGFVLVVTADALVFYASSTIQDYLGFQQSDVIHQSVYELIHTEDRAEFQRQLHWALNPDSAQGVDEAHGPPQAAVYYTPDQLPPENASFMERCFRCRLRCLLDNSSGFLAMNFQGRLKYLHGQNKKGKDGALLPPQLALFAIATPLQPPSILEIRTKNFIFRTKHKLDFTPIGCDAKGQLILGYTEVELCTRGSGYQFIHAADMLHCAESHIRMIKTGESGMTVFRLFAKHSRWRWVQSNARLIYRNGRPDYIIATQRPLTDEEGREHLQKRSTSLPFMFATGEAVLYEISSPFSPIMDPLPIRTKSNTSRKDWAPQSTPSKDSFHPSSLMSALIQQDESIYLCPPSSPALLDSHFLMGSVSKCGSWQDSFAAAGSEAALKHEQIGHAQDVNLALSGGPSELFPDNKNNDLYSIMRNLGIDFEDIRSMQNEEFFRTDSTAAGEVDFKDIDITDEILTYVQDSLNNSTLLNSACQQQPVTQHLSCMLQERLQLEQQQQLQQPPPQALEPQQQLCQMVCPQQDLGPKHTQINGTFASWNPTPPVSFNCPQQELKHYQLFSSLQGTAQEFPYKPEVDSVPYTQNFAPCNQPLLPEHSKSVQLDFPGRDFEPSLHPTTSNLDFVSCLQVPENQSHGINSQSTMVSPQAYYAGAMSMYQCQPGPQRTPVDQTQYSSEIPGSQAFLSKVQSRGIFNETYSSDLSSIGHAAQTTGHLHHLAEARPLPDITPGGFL
Nature of the experiment: In vitro assay 3: antagonism in mouse cell line (AHR transactivation, firefly luciferase reporter, kynurenic acid prestimulated). It counts as cell-based. The essentials:
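Kynurenic acid-prestimulated mouse reporter cells; stable AHR-inducible firefly luc construct with DRE sites in promoter. No-agonist wells = positive inhibition ctrl. Luminescence normalized to pos/neg ctrls; n>1 reported as mean or median.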

Experiment [2] deals with T2, AHR (Homo sapiens, UniProt P35869).
T2 construct: U87 MG glioblastoma cells (ATCC #HTB-14) endogenously expressing AHR; endogenous in cells; host or cells: U87 MG glioblastoma cells (ATCC #HTB-14)
T2 sequence (P35869 11-848): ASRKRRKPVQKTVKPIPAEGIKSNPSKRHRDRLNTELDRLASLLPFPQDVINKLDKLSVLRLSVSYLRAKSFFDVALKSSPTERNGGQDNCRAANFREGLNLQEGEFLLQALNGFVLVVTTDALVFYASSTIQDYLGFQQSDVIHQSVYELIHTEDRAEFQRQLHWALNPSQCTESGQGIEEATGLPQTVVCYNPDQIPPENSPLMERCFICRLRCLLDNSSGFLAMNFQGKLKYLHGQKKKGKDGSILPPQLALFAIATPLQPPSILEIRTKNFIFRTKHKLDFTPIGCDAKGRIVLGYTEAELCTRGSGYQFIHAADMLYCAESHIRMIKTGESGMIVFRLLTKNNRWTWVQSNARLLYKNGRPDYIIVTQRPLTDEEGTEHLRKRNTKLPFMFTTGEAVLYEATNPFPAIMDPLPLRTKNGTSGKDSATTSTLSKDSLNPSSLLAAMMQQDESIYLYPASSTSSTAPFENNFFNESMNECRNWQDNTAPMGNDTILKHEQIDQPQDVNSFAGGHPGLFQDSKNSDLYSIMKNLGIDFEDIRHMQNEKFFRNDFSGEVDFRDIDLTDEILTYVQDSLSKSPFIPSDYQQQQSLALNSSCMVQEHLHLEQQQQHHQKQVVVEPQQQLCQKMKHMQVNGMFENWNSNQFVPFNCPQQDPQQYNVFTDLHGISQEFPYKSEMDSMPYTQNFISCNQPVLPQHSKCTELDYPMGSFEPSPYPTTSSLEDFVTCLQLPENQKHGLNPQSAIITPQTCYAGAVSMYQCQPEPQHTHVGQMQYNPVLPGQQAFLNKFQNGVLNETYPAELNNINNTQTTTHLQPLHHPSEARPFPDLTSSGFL
In words: In vitro assay 1: antagonism in human cell line (AHR transactivation, firefly luciferase reporter, kynurenic acid prestimulated). It counts as cell-based. The note with it: AHR Antagonism Human IC50 [M]. Summed up:
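Antagonism is measured against kynurenic acid prestimulation in U87 MG glioblastoma cells carrying stable DRE-luciferase and Renilla reporters. Positive inhibition control: 150 μM kynurenic acid with 5 μM staurosporine. Values are normalized to controls; repeats are averaged or given as medians.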
Background: A reporter such as luciferase makes a cellular process visible.

Where [3] appears, read: mouse Hepa 1c1c7 cells, 200 μM kynurenic acid, 20 hours, read-out: AHR Antagonism Mouse IC50.
[4] abbreviates: read-out: AHR Antagonism Mouse IC50, mouse Hepa 1c1c7 cells, 200 μM kynurenic acid, 20 hours.
Setting [5] is: Hepa 1c1c7 cells, 200 μM kynurenic acid, 20 hours, firefly luciferase reporter, read-out: AHR Antagonism Mouse IC50.

Here are results for 24 compounds from US20230113037A1 (Bayer Aktiengesellschaft, priority 2019, published 2023).

pIC50: −log10 of the molar value. “And” between values parts separate entries of the source, which are not always exact repeats. Equal entries are not always repeated. Where two headings read alike, the source gives them in different places. Bounds are passed on as bounds.

In general, pIC50 refers to the negative decadic logarithm of the IC50, by convention in mol/L. As usually defined, the IC50 is the concentration needed to halve the response being measured. Lower therefore signals greater potency. With `CS(=N)(=O)c1ccc(-c2nc3c4ccccc4nc(N[C@@H]4CCCCNC4=O)n3n2)cc1` (single isomer, unassigned) [Example 308], in experiment [1] (setting [3]), the pIC50 was 7.73. Also, the half-inhibitory concentration (IC50) in experiment [2] is 1.1e-07 M.
Turning to `CCNC(=O)C(CC)Nc1nc2ccccc2c2nc(-c3cccc(OC(F)(F)F)c3)nn12` (single isomer, unassigned) [Example 319, N-ethyl-2-({2-[3-(trifluoromethoxy)phenyl][1,2,4]triazolo[1,5-c]quinazolin-5-yl}amino)butanamide], in experiment [1] (setting [3]), the pIC50 is 9.30. The same compound showed an IC50 in experiment [2] of 1.74e-08 M.
As to `CCCCC(Nc1nc2ccccc2c2nc(-c3cccc(OC(F)(F)F)c3)nn12)C(N)=O` (single isomer, unassigned) [Example 324, N^2-{2-[3-(trifluoromethoxy)phenyl][1,2,4]triazolo[1,5-c]quinazolin-5-yl}-norleucinamide], the pIC50 in experiment [1] (setting [4]) was 7.79. The same compound registered an IC50 in experiment [2] of 2.02e-08 M.
Consider `CS(=N)(=O)c1cccc(-c2nc3c4ccccc4nc(N[C@@H]4CCCCNC4=O)n3n2)c1` (single isomer, unassigned) [Example 659], for which the pIC50 in experiment [1] (setting [3]) was 5.35. For the same compound, the IC50 in experiment [2] amounted to 1.62e-06 M.
For the compound `CS(=N)(=O)c1cccc(-c2nc3c4ccccc4nc(N[C@@H]4CCCCNC4=O)n3n2)c1` (single isomer, unassigned) [Example 660], the pIC50 in experiment [1] (setting [3]) was 6.03. The compound also returned an IC50 in experiment [2] of 8.48e-07 M.
As to `CS(=N)(=O)c1ccccc1-c1nc2c3ccccc3nc(N[C@@H]3CCCCNC3=O)n2n1` (single isomer, unassigned) [Example 661], in experiment [1] (setting [4]), the pIC50 is 6.86. For the same compound, the IC50 in experiment [2] was 1.53e-07 M.
For `CS(=N)(=O)c1ccccc1-c1nc2c3ccccc3nc(N[C@@H]3CCCCNC3=O)n2n1` (single isomer, unassigned) [Example 662], the pIC50 in experiment [1] (setting [4]) is 7.15. This compound came in with a half-inhibitory concentration (IC50) in experiment [2] of 6.86e-08 M.
Turning to `CCNC(=O)C(CC)Nc1nc2ccccc2c2nc(-c3ccccc3OC(F)(F)F)nn12` (single isomer, unassigned) [Example 663, N-ethyl-2-({2-[2-(trifluoromethoxy)phenyl][1,2,4]triazolo[1,5-c]quinazolin-5-yl}amino)butanamide], in experiment [1] (setting [3]), the pIC50 was 6.50. Also, in experiment [2], the IC50 was > 2e-05 M.
`CCNC(=O)C(CC)Nc1nc2ccccc2c2nc(-c3ccccc3OC(F)(F)F)nn12` (single isomer, unassigned) [Example 664, N-ethyl-2-({2-[2-(trifluoromethoxy)phenyl][1,2,4]triazolo[1,5-c]quinazolin-5-yl}amino)butanamide]: the pIC50 in experiment [1] (setting [3]) is 8.83. Moreover, in experiment [2], the IC50 came to 1.26e-08 M.
On to `Cn1cc(-c2nc3c4cccc(Br)c4nc(N[C@H]4C[S+]([O-])CCNC4=O)n3n2)cn1` (single isomer, unassigned) [Example 849], for which the pIC50 in experiment [1] (setting [5]) is 6.29. Besides, half-maximal inhibition in experiment [2] (firefly luciferase reporter) (IC50) was put at 4.87e-07 M.
On to `COc1ccc(-c2nc3c4cccc(S(C)(=N)=O)c4nc(N[C@@H]4CCCCNC4=O)n3n2)cc1` (single isomer, unassigned) [Example 854], for which the pIC50 in experiment [1] (setting [5]) is 6.83. In experiment [2] (firefly luciferase reporter), this compound gave an IC50 of 7.05e-09 M.
For `COc1ccc(-c2nc3c4cccc(S(C)(=N)=O)c4nc(N[C@@H]4CCCCNC4=O)n3n2)cc1` (single isomer, unassigned) [Example 855], the pIC50 in experiment [1] (setting [5]) was 7.58. This compound displayed an IC50 in experiment [2] (firefly luciferase reporter) of 2.28e-09 M.
For the compound `Cn1cc(-c2nc3c4cccc(Br)c4nc(N[C@H]4CS(=N)(=O)CCNC4=O)n3n2)cn1` (single isomer, unassigned) [Example 856], the pIC50 in experiment [1] (setting [5]) is 4.71 and < 4.70. For the same compound, the IC50 in experiment [2] (firefly luciferase reporter) was > 2e-05 M.
In the case of `Cn1cc(-c2nc3c4cccc(Br)c4nc(N[C@H]4CS(=N)(=O)CCNC4=O)n3n2)cn1` (single isomer, unassigned) [Example 857], the pIC50 in experiment [1] (setting [5]) is 5.67. For the same compound, the IC50 in experiment [2] (firefly luciferase reporter) worked out at 4.25e-06 M.
Take `Cn1cc(-c2nc3c4cccc(C(F)(F)F)c4nc(NC4C(=O)NCC4(C)C)n3n2)cn1` (single isomer, unassigned; (-)) [Example 729, (−)-4,4-dimethyl-3-{[2-(1-methyl-1H-pyrazol-4-yl)-7-(trifluoromethyl)[1,2,4]triazolo[1,5-c]quinazolin-5-yl]amino}pyrrolidin-2-one]: the pIC50 in experiment [1] (setting [3]) was 6.79. This compound registered an IC50 in experiment [2] of 3.6e-06 M.
With `NC(=O)[C@@H](CO)Nc1nc2ccccc2c2nc(-c3ccccc3)nn12` [Example 2, N^2-(2-phenyl[1,2,4]triazolo[1,5-c]quinazolin-5-yl)-D-serinamide], the pIC50 in experiment [1] (setting [3]) was 7.16. This compound registered an IC50 in experiment [2] of 2.4e-08 M.
`CC(C)[C@@H](Nc1nc2ccccc2c2nc(-c3ccccc3)nn12)C(N)=O` [Example 3, N^2-(2-phenyl[1,2,4]triazolo[1,5-c]quinazolin-5-yl)-D-valinamide]: the pIC50 in experiment [1] (setting [3]) is 9.37. In experiment [2], this compound had an IC50 of 1.82e-09 M.
As for `CC[C@@H](Nc1nc2ccccc2c2nc(-c3ccccc3)nn12)C(N)=O` [Example 4, (2R)-2-[(2-phenyl[1,2,4]triazolo[1,5-c]quinazolin-5-yl)amino]butanamide], the pIC50 in experiment [1] (setting [3]) is 9.04. In experiment [2], this compound showed an IC50 of 1.68e-09 M.
As to `O=C1NCCCC[C@H]1Nc1nc2ccccc2c2nc(-c3ccc(Cl)cc3)nn12` [Example 6], the negative-log IC50 (pIC50) in experiment [1] (setting [3]) is < 5.00. Further, the half-maximal inhibitory concentration (IC50) in experiment [2] worked out at 5.93e-10 M.
Consider `O=C1NCCCC1Nc1nc2ccccc2c2nc(-c3cccc(F)c3)nn12` (stereo not drawn) [Example 8, 3-{[2-(3-fluorophenyl)[1,2,4]triazolo[1,5-c]quinazolin-5-yl]amino}piperidin-2-one], for which the pIC50 in experiment [1] (setting [3]) was 6.98. The IC50 in experiment [2] came out at 5.44e-08 M.
With `O=C1NCCC1Nc1nc2ccccc2c2nc(-c3cccc(F)c3)nn12` (stereo not drawn) [Example 9, 3-{[2-(3-fluorophenyl)[1,2,4]triazolo[1,5-c]quinazolin-5-yl]amino}pyrrolidin-2-one], in experiment [1] (setting [3]), the pIC50 was 7.17. In experiment [2], this compound yielded an IC50 of 2.62e-08 M.
Take `O=C1NCCCC[C@@H]1Nc1nc2ccccc2c2nc(-c3cccc(F)c3)nn12` [Example 10, (3S)-3-{[2-(3-fluorophenyl)[1,2,4]triazolo[1,5-c]quinazolin-5-yl]amino}azepan-2-one]: in experiment [1] (setting [4]), the pIC50 was 8.10. In experiment [2], this compound returned an IC50 of 2.71e-08 M.
Consider `O=C1NCCCC[C@H]1Nc1nc2ccccc2c2nc(-c3cccc(F)c3)nn12` [Example 11, (3R)-3-{[2-(3-fluorophenyl)[1,2,4]triazolo[1,5-c]quinazolin-5-yl]amino}azepan-2-one], for which the pIC50 in experiment [1] (setting [4]) was 9.24. This compound also came in with an IC50 in experiment [2] of 1.36e-09 M.
Turning to `Cn1cc(-c2nc3c4ccccc4nc(N[C@@H]4CCCCNC4=O)n3n2)cn1` [Example 12, (3R)-3-{[2-(1-methyl-1H-pyrazol-4-yl)[1,2,4]triazolo[1,5-c]quinazolin-5-yl]amino}azepan-2-one], in experiment [1] (setting [3]), the pIC50 is 8.08. In experiment [2], this compound showed an IC50 of 1.31e-08 M.
